Measurements taken from US4717662A (priority 1985, dated 1988).
Where two headings read alike, the source gives them in different places.

Experiments:
alpha-amylase [1] = target: alpha-amylase (Bacillus licheniformis, UniProt P06278); conditions: for (-Δ G°) stabilization free energy, R T ln F: 95° C. (T = 368K); for t 1/2: salt added to 1.22 M, diluted 1×100
[2] = test system: alpha-amylase (Taka-Therm L-170); conditions: pH 5.5
Experimental: In a typical run, 70 lbs. of corn starch was suspended in 59 liters of water and the pH adjusted to 5.0 using acetic acid. […] After gelantinization, the starch was flashed into a temperature regulated vessel maintained at 95° C. for continued liquefaction for 2 hours. In another experiment, the liquefaction of starch was carried out at pH 6.3-6.5 (pH adjusted using sodium hydroxide) in the presence of 50 ppm added calcium.
Calcium chloride was added to a level of 25 ppm (as Ca^++) and the pH adjusted to 5.5 using 10% sodium hydroxide.

alpha-amylase [3] = assay: Comparative thermal stability of alpha-amylase with different anions at 90° C.; assay type: biochemical; conditions: percent residual activity versus time at 90° C., FIG. 2
Experimental: A comparative study was conducted in which the stability of alpha-amylase stabilized with acetate was compared with that containing anions known to have been added to commercially available alpha-amylase solutions. The activity of the various anion containing enzyme solutions was determined as previously described and the percent residual activity plotted as a function of time at 90° C. The results of this study are graphically represented in FIG. 2. The stabilizing effects of the different anions against thermal inactivation of the enzyme followed this order: citrate<sulphate<chloride<acetate.

Chain of alpha-amylase (Bacillus licheniformis, UniProt P06278) (P06278 30-512): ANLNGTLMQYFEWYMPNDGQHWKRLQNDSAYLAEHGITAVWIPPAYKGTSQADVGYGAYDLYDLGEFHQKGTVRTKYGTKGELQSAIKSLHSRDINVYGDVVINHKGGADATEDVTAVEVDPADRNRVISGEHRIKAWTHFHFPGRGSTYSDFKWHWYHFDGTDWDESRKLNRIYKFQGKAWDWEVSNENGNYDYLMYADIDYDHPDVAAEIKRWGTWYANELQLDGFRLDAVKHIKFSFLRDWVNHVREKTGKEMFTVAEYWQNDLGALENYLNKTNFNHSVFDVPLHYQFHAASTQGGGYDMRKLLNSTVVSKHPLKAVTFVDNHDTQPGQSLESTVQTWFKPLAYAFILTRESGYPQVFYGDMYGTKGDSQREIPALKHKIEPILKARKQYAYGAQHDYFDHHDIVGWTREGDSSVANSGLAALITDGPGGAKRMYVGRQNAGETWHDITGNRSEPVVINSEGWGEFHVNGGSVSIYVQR

In the case of `CCCC(=O)[O-].[Na+]` [CH3 CH2 CH2 COONa, sodium butyrate], the “(-Δ G°) stabilization free energy, R T ln F” value (alpha-amylase [1]; pH 5.8) is reported as 1.5 K cal/mole, the “order of thermal stabilization of the enzyme” value (alpha-amylase [1]; 95° C., pH 5.8, aliphatic monocarboxylic acid sodium salts, FIG. 1) is reported as “formate<acetate<propionate<butyrate” and the “t 1/2” value (alpha-amylase [1]; 95° C., pH 5.8) is reported as 13.3 min. The “additional stabilization attributed to the butyl group” value (alpha-amylase [1]; relative to formate, 95° C., pH 5.8) was “about 0.6 K Cal/mol”.

For `O=C(O)C(c1ccccc1)c1ccccc1` [Diphenylacetic, diphenylacetic acid], the “Half-Life 95° C., pH 5.8” value (alpha-amylase [1]) was 15 minutes, the “(-Δ G°) stabilization free energy, R T ln F” value (alpha-amylase [1]; pH 5.8) was 1.5 K cal/mole and the “relative stabilizing effect in words” value (alpha-amylase [1]; 95° C., pH 5.8, comparison among acids tested) was “the most”. The “t 1/2” value (alpha-amylase [1]; 95° C., pH 5.8) was 15.0 min.

In the case of `CC(=O)O` [Na Acetate, Sodium acetate], the “DE Progression” value ([2]; Starch slurry containing 0.7 mM of sodium acetate + 25 ppm of added Ca^++, 1/2 hr) is reported as 4.15, the “DE Progression” value ([2]; Starch slurry containing 0.7 mM of sodium acetate + 25 ppm of added Ca^++, 11/2 hr) is reported as 8.87 and the “DE Progression” value ([2]; Starch slurry containing 0.7 mM of sodium acetate + 25 ppm of added Ca^++, 1 hr) is reported as 6.11. For the same compound, the “DE Progression” value ([2]; Starch slurry containing 0.7 mM of sodium acetate + 25 ppm of added Ca^++, 2 hr) was 10.25, the “DE Progression” value ([2]; Starch slurry containing 0.01 M sodium acetate and 25 ppm of added Ca^++, 1/2 hr) was 5.53 and the “DE Progression” value ([2]; Starch slurry containing 0.01 M sodium acetate and 25 ppm of added Ca^++, 11/2 hr) was 10.82. For the same compound, the “DE Progression” value ([2]; Starch slurry containing 0.01 M sodium acetate and 25 ppm of added Ca^++, 1 hr) was 8.64, the “DE Progression” value ([2]; Starch slurry containing 0.01 M sodium acetate and 25 ppm of added Ca^++, 2 hr) was 13.01 and the “order of stabilizing effects of anions against thermal inactivation of the enzyme” value (shortened to “order of stabilizing effects of anions”) (alpha-amylase [3]) was “citrate<sulphate<chloride<acetate”.

`O=C(O)Cc1ccccc1` [Phenylacetic acid, phenylacetic acid] was tested, and the “Half-Life 95° C., pH 5.8” value (alpha-amylase [1]) was 7 minutes, the “(-Δ G°) stabilization free energy, R T ln F” value (alpha-amylase [1]; pH 5.8) was 1.0 K cal/mole and the “t 1/2” value (alpha-amylase [1]; 95° C., pH 5.8) was 7.0 min.

In the case of `Cl` [chloride], the “order of stabilizing effects of anions” value (alpha-amylase [3]) is reported as “citrate<sulphate<chloride<acetate”.

In the case of `O=C(O)CC(O)(CC(=O)O)C(=O)O` [citrate], the “order of stabilizing effects of anions” value (alpha-amylase [3]) is reported as “citrate<sulphate<chloride<acetate”.

For `O=S(=O)(O)O` [sulphate], the “order of stabilizing effects of anions” value (alpha-amylase [3]) was “citrate<sulphate<chloride<acetate”.
